ChEMBL document CHEMBL3875174, “Further investigation of Paprotrain: Towards the conception of selective and multi-targeted CNS kinase inhibitors” (Eur J Med Chem, 2016)

Legend:
[1] = target: Dual specificity protein kinase CLK1 (Homo sapiens, UniProt P49759); test: Inhibition of GST-tagged human recombinant CLK1 expressed in Escherichia coli using RS peptide as substrate incubated for 30 mins in presence of [gamma-33 P] ATP by liquid scintillation counting analysis
[2] = target: Dual specificity tyrosine-phosphorylation-regulated kinase 1A (Homo sapiens, UniProt Q13627); test: Inhibition of GST-tagged human recombinant DYRK1A expressed in Escherichia coli using RS peptide as substrate incubated for 30 mins in presence of [gamma-33 P] ATP by liquid scintillation counting analysis
[3] = target: Cyclin-dependent kinase 5/CDK5 activator 1 (Homo sapiens, UniProt Q00535); type: protein-complex assay
[4] = target: Dual specificity protein kinase CLK4 (Homo sapiens, UniProt Q9HAZ1); test: Inhibition of GST-tagged human recombinant CLK4 expressed in Escherichia coli using RS peptide as substrate incubated for 30 mins in presence of [gamma-33 P] ATP by liquid scintillation counting analysis
[5] = target: Dual specificity tyrosine-phosphorylation-regulated kinase 1B (Homo sapiens, UniProt Q9Y463); test: Inhibition of GST-tagged human recombinant DYRK1B expressed in Escherichia coli using RS peptide as substrate incubated for 30 mins in presence of [gamma-33 P] ATP by liquid scintillation counting analysis
[6] = Inhibition of porcine brain CK1 delta/epsilon using RRKHAAIGpSAYSITA as substrate incubated for 30 mins in presence of [gamma-33 P] ATP by liquid scintillation counting analysis; set-up: species or system Sus scrofa
[7] = target: Glycogen synthase kinase-3 (Sus scrofa, UniProt B2LUN4+I6LNT8); test: Inhibition of porcine brain GSK3alpha/beta using GS-1 as substrate incubated for 30 mins in presence of [gamma-33 P] ATP by liquid scintillation counting analysis
[8] = target: Dual specificity protein kinase CLK2 (Homo sapiens, UniProt P49760); test: Inhibition of GST-tagged human recombinant CLK2 expressed in Escherichia coli using RS peptide as substrate incubated for 30 mins in presence of [gamma-33 P] ATP by liquid scintillation counting analysis
[9] = target: Dual specificity protein kinase CLK3 (Homo sapiens, UniProt P49761); test: Inhibition of GST-tagged human recombinant CLK3 expressed in Escherichia coli using RS peptide as substrate incubated for 30 mins in presence of [gamma-33 P] ATP by liquid scintillation counting analysis
[10] = Cytotoxicity against human KB cells assessed as growth inhibition at 1 uM after 72 hrs by MTS assay; type: toxicity, cell-based; conditions: for inhibition at 72 h, 1 µM: KB cells, read-out: GI; for growth inhibition (GI): kb, 72 h, 1 µM

Chain of Dual specificity protein kinase CLK2 (P49760 whole entry): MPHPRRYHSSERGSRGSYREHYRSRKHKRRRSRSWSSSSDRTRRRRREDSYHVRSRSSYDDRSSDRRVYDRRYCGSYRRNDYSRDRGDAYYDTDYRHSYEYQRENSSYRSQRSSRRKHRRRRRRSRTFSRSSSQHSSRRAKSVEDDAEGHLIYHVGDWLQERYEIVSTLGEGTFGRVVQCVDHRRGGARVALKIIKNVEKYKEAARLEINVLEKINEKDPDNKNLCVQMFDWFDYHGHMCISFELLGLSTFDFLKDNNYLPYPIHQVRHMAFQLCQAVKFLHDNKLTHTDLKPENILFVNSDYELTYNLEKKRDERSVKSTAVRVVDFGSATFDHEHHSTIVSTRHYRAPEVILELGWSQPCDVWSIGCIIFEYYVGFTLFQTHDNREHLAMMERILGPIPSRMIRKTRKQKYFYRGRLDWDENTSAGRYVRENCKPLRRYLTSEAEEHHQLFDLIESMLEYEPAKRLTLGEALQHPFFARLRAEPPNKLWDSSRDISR
Chain of Dual specificity protein kinase CLK3 (P49761 whole entry): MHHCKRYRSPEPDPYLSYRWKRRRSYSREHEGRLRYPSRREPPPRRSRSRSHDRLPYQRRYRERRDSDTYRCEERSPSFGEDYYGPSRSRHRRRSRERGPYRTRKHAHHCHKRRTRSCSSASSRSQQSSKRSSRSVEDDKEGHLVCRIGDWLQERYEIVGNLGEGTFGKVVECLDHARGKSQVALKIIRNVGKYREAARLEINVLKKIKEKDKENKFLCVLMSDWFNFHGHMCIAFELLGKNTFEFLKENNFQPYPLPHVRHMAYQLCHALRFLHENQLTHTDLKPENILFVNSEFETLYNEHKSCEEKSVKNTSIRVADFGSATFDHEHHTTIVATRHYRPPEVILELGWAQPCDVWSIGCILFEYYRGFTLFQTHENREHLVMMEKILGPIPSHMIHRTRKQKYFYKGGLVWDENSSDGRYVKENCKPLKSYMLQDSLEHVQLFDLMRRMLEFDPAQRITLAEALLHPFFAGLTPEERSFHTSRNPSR
Chain of Cyclin-dependent kinase 5/CDK5 activator 1 (Q00535 whole entry): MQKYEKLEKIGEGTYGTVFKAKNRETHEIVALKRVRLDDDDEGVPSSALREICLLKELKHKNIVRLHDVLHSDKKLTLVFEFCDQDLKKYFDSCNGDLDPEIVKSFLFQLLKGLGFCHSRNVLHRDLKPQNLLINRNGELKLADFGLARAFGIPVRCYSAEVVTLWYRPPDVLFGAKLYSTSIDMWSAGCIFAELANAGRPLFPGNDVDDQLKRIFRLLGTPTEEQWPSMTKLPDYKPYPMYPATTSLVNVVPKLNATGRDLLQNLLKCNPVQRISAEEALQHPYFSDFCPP
Chain of Cyclin-dependent kinase 5/CDK5 activator 1 (Q15078 whole entry, further chain): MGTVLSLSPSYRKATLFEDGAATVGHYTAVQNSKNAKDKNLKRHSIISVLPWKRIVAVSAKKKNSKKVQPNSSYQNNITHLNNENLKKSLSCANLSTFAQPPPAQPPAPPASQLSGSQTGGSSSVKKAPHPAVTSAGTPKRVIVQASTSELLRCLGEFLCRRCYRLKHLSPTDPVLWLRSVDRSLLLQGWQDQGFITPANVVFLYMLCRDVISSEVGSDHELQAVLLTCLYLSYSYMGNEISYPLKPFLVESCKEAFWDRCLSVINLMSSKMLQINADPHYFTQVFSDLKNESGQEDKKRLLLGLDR
Chain of Dual specificity tyrosine-phosphorylation-regulated kinase 1B (Q9Y463 whole entry): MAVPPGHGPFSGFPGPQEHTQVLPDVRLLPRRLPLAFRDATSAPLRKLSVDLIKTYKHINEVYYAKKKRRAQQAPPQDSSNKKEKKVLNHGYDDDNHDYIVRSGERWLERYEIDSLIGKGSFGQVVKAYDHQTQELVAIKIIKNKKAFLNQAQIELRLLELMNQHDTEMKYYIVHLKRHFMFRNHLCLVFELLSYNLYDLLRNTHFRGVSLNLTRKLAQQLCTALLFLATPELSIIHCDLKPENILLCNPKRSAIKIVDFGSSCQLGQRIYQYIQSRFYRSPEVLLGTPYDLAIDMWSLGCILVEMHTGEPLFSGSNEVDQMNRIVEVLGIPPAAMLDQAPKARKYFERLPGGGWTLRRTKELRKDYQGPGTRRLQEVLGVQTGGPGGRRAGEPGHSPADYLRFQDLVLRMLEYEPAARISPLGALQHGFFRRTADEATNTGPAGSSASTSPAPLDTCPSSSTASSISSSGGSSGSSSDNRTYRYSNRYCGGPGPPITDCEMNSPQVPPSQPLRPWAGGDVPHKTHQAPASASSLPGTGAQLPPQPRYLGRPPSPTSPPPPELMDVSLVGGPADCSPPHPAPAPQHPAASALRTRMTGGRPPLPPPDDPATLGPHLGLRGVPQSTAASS
Chain of Dual specificity protein kinase CLK1 (P49759 whole entry): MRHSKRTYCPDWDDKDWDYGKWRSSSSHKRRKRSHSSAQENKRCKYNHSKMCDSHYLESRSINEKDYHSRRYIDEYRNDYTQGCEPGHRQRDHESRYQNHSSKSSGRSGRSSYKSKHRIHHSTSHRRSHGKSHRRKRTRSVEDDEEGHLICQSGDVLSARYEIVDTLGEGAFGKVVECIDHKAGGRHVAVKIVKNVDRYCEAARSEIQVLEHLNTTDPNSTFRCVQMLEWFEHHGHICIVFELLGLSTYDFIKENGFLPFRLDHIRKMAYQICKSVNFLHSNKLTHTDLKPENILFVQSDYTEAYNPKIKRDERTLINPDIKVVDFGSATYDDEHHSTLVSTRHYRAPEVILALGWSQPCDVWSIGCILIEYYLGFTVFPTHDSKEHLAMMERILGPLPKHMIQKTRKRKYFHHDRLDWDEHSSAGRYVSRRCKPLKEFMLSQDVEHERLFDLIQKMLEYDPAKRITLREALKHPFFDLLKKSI
Chain of Dual specificity protein kinase CLK4 (Q9HAZ1 whole entry): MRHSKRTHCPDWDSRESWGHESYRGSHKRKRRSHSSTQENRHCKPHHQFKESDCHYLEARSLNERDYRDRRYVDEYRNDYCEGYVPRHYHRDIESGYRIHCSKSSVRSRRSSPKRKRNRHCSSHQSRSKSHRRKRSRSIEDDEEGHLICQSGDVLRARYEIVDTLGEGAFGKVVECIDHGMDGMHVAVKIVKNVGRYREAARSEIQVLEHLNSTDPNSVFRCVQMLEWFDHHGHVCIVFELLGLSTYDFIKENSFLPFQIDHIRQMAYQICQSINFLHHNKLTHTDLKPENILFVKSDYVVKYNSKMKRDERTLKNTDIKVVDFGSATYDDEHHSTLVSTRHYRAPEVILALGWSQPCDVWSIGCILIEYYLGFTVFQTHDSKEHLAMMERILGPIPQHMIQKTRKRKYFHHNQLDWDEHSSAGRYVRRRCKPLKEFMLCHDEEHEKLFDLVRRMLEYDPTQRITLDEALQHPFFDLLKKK

SMILES | IC50 [1] | IC50 [2] | IC50 [3] | IC50 [4] | IC50 [5] | IC50 [6] | IC50 [7] | IC50 [8] | IC50 [9] | inhibition at 72 h, 1 µM [10] | growth inhibition (GI) [10]
N#C/C(=C\c1cccnc1)c1c[nH]c2ncccc12 | 16 nM | 21 nM | 130 nM | 47 nM | 240 nM | > 10000 nM | 720 nM | 4600 nM | > 10000 nM | 29% | 
COc1ccc2c(-c3ccncc3)c[nH]c2n1 | 430 nM | 5800 nM | 7000 nM | 110 nM | 220 nM | > 10000 nM | > 10000 nM | 3500 nM | 6100 nM |  | Non-Toxic
N#Cc1cc2ccncc2c2[nH]c3ccccc3c12 | 170 nM | 370 nM | 6000 nM | 180 nM | 260 nM | > 10000 nM | 2400 nM | 1100 nM | 1800 nM | 3% | 
COc1cccc2[nH]c3c4ccncc4cc(C#N)c3c12 | 620 nM | 850 nM | > 10000 nM | 100 nM | > 10000 nM | > 10000 nM | > 10000 nM | 4000 nM | > 10000 nM | 13% | 
COc1ccc2c(/C(C#N)=C/c3cccnc3)c[nH]c2n1 | 230 nM | 180 nM | > 10000 nM | 71 nM | 100 nM | > 10000 nM | > 10000 nM | 2300 nM | > 10000 nM |  | Non-Toxic
